From US7767804B2, “Compositions and methods for using a solid support to purify RNA” (Qiagen North American Holdings, Inc., priority 2001, dated 2010)
Like-named read-outs stand apart in the source and are kept apart here.

Key:
[1] = cited from earlier work; for Type of Heat: heat of aqueous solution; for Heat of Aqueous Solution: tabulated, Handbook of Chemistry and Physics
[2] = Text: Much time and effort was spent screening detergents that would adequately lyse cells and also stay soluble in the Lysing/Binding Solution of the present invention. The Tween, Triton, Tergitol, Nonidet and Igepal family of detergents were examined along with a number of non-ionic detergent-like compounds.
[3] = pH 8.8
RNase activity = RNase activity with LiCl Wash I Solution, detected as degraded RNA in the final eluted RNA product; type: biochemical
Text: For cesium, ammonium, sodium and potassium chloride salts, the maximum solubilities obtained in 55% ethanol were about 2.5 M, 2 M, 1.5 M, and <1 M, respectively. […] It is likely that RNase activity would be detected using the LiCl and LiBr salts as well, at least some proportion of the time, and depending upon the tissue from which the RNA is purified. […] This is probably because solubility definitions are somewhat vague for predicted alcohol solubilities, and the Wash I Solution used in this experiment contained a mixture of water and ethanol, rather than a pure alcohol solution.

[4] = data extrapolated to 20° C. from tabulated data in Handbook of Chemistry and Physics, cited from earlier work
[5] = approximate maximum solubility in Wash I Solution containing 55% ethanol

| Structure (SMILES) | Type of Heat [1] | Heat of Aqueous Solution [1] | also measured |
| --- | --- | --- | --- |
| [Cl-].[Cs+] [CsCl, cesium chloride] | endothermic | +4.25 kcal/mole |  |
| Cl.N [NH4Cl, ammonium chloride] | endothermic | +3.53 kcal/mole |  |
| [Cl-].[Na+] [NaCl, sodium chloride] | endothermic | +0.93 kcal/mole |  |
| CCOCCOCCO [DGME, Diethyleneglycolmonoethylether] |  |  | Stability/solubility of detergent in the Lysing/Binding Solution over time [2]: stays in solution |
| [Cl-].[Li+] [LiCl, lithium chloride] | exothermic | -8.85 kcal/mol | Measured Solubility in Lysis/Binding [3]: at least 4M; RNase activity detected as degraded RNA in the final eluted RNA product (RNase activity; 2.5 M LiCl Wash I Solution): RNase activity was detected at least half of the time; LiCl needed in the Wash I Solution in order to eliminate the RNase activity (RNase activity; Wash I Solution): at least 5 M |
| [Cl-].[K+] [KCl, potassium chloride] | endothermic | +4.12 kcal/mole | Reported Solubility in Water [4]: 3000 mM; Reported Solubility in Water ([4]; listed as potassium chloride): approximately 3 M; Measured Solubility in Wash I [5]: < 1000 mM; Measured Solubility in Wash I ([5]; listed as potassium chloride): < 1000 mM |
| [Br-].[Li+] [LiBr, lithium bromide] | exothermic | -11.67 kcal/mol |  |
| CCCCCCCCCCCC(=O)OCCOCCOCCOCCOCCOCCOCCOCCOCCOCCOCCOCCOCCOCCOCCOCCOCCOCCOCCOCCOCC(OCCOCCOCCOCCOCCOCCOCCOCCOCCOCCOCCOCCOCCOCCOCCOCCOCCOCCOCCOCCO)C1OCC(OCCOCCOCCOCCOCCOCCOCCOCCOCCOCCOCCOCCOCCOCCOCCOCCOCCOCCOCCOCCO)C1OCCOCCOCCOCCOCCOCCOCCOCCOCCOCCOCCOCCOCCOCCOCCOCCOCCOCCOCCOCCO (stereo not drawn) [Tween-20, polyoxylene sorbitan monolaurate] |  |  | Stability/solubility of detergent in the Lysing/Binding Solution over time [2]: saponified or degraded over time and fell out of solution |
